{"source": "patent US20090062355A1", "about": "“Pharmaceutical Product” (Takeda Pharmaceutical Company Limited, priority 2006, published 2009)", "system": "Human Peripheral Blood Mononuclear Cell", "assay": "Suppressive action on production of mediator from human peripheral blood mononuclear cell", "assay_type": "cell-based", "settings": "LPS 10 ng/mL and INFα 1 U/mL, overnight, ELISA", "experimental": "Peripheral blood mononuclear cells were separated from three healthy subjects by a conventional method, suspended in RPMI1640 medium supplemented with 10% inactivated fetal bovine serum, and plated on a 96 well microplate at 8×10^4 cells/well. Test compound 2 (compound 8′ of Reference Example D7), LPS (final concentration 10 ng/mL) and INFα (final concentration 1 U/mL) were added, cultured overnight, and TNF-α, IL-6 and IL-8 in the culture supernatant was quantified using a commercially available ELISA kit. Test substance was dissolved in N,N-dimethylformamide to 10 mM, diluted with the medium to 10-fold concentration of the final concentration and 1/10 thereof was added. Test compound 2 suppressed production of TNFα, IL-6 and IL-8 at an equivalent IC50. In addition, no difference in the suppressive activity was found in the peripheral blood mononuclear cells of the three subjects.", "note": "Where two headings read alike, the source gives them in different places.", "data": [{"compound": "CCOC(=O)C1=CCOCC1S(=O)(=O)Nc1ccc(F)cc1Cl", "note": "(stereo not drawn) [test compound 2, ethyl 3-[(2-chloro-4-fluorophenyl)sulfamoyl]-3,6-dihydro-2H-pyran-4-carboxylate]", "values": [{"measurement": "IC50", "setting": "subject A, read-out: IC50, IL-6 production", "value": 36, "unit": "nM"}, {"measurement": "IC50", "setting": "subject A, read-out: IC50, IL-8 production", "value": 83, "unit": "nM"}, {"measurement": "IC50", "setting": "subject A, read-out: IC50, TNF-α production", "value": 43, "unit": "nM"}, {"measurement": "IC50", "setting": "subject B, read-out: IC50, IL-6 production", "value": 51, "unit": "nM"}, {"measurement": "IC50", "setting": "subject B, read-out: IC50, IL-8 production", "value": 130, "unit": "nM"}, {"measurement": "IC50", "setting": "subject B, read-out: IC50, TNF-α production", "value": 39, "unit": "nM"}, {"measurement": "IC50", "setting": "subject C, read-out: IC50, IL-6 production", "value": 35, "unit": "nM"}, {"measurement": "IC50", "setting": "subject C, read-out: IC50, IL-8 production", "value": 81, "unit": "nM"}, {"measurement": "IC50", "setting": "subject C, read-out: IC50, TNF-α production", "value": 32, "unit": "nM"}]}]}
